DC50 and EC50 data for 15 molecules are collected here from US20250320206A1, “STAT6 DEGRADERS” (Gilead Sciences, Inc., priority 2024, published 2025).

For one assay, the target named is T1, STAT6 (Homo sapiens, UniProt P42226).
T1 construct: These cells express endogenous STAT6; host or cells: HeLa LgBiT clone 4.14
T1 sequence (P42226 1-847): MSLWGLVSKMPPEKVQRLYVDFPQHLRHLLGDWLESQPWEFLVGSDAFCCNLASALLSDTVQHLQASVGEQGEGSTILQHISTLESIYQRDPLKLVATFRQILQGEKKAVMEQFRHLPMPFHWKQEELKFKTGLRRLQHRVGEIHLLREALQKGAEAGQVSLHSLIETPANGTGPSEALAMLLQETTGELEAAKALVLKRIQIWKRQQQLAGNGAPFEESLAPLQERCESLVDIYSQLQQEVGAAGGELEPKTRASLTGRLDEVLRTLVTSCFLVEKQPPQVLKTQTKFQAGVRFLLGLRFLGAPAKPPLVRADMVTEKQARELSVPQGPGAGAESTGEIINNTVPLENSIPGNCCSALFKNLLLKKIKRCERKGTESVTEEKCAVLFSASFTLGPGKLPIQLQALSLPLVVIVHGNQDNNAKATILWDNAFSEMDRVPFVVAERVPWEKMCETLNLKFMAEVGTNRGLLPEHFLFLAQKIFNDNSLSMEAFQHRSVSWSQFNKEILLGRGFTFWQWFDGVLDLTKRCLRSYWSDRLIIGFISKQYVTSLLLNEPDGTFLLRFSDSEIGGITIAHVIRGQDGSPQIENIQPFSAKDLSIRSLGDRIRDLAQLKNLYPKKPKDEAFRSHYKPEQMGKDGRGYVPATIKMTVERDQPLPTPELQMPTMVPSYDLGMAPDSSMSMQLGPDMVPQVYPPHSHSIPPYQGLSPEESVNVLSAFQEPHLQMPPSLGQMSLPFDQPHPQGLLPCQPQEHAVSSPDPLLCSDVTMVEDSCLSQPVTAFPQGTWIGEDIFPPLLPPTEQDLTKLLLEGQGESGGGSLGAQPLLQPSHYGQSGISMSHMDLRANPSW
Nature of the assay: Stat6 Degrader Assay (HiBiT based, HeLa LgBiT clone 4.14). In kind it is cell-based. As to conditions: HeLa LgBiT clone 4.14 HiBiT-STAT6, 4-24 h incubation; values given for compounds with >80% Emax; geometric mean; read-out: STAT6 degradation DC50. The procedure, abridged: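 Luminescence from HiBiT-STAT6 complementing stably expressed LgBiT in HeLa clone 4.14 reports remaining STAT6 protein. Cells (5000/well) exposed to compound for 4-24 h at 37° C; read 0.5 h after Nano-Glo addition. 100% degradation window set with 50 μM terfenadine; percent degradation plotted against concentration.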

Assay [1] concerns Eotaxin-3 release in human whole blood stimulated with IL-4. Put plainly: Human Whole Blood Eotaxin-3 Assay (IL-4 stimulated eotaxin-3 release). The format is cell-based. The settings on record: IL-4 stimulation, 48 h, values given for compounds with >80% Emax, geometric mean. The method in brief: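 Eotaxin-3 (CCL26) release measured by MSD kit in plasma supernatant after 48 h IL-4 stimulation ([…]) of human whole blood. Compounds added in triplicate 4-fold dilutions 2 h before stimulation; 0.5% DMSO final, 37° C, 5% CO2.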

Usually DC50 stands for the concentration giving 50% degradation. The term EC50 denotes the concentration giving half of the maximal effect. Lower therefore signals a more potent agent. `CNc1ccn(-c2ccnc3c2cc(CN2CC=C(c4c(C)cc(C(=O)N(C)c5ccc(C6CCN(Cc7ccc8c(c7)C(C)(C)C(=O)N8[C@H]7CCC(=O)NC7=O)CC6)cc5)cc4F)CC2)n3C)c(=O)c1` (single isomer, unassigned) [Example 3u229]: the DC50 at STAT6 came out at 0.3 nM. Also, in assay [1], the EC50 worked out at 1.6 nM.

As for `C[C@H]1CN(Cc2ccc3c(c2)C(C)(C)C(=O)N3C2CCC(=O)NC2=O)CCN1CC1CCN(C(=O)c2cc(F)c(C3CCN(Cc4cc5c(-n6ccc7c(c6=O)CCN7)ccnc5n4C)CC3)c(F)c2)CC1` (stereo partly drawn) [Example 3u86, 3-(5-(((S)-4-((1-(3,5-difluoro-4-(1-((1-methyl-4-(4-oxo-1,2,3,4-tetrahydro-5H-pyrrolo[3,2-c]pyridin-5-yl)-1H-pyrrolo[2,3-b]pyridin-2-yl)methyl)piperidin-4-yl)benzoyl)piperidin-4-yl)methyl)-3-methylpiperazin-1-yl)methyl)-3,3-dimethyl-2-oxoindolin-1-yl)piperidine-2,6-dione], the DC50 at STAT6 is 3.4 nM. In assay [1], this molecule gave an EC50 of 5.1 nM.

For the molecule `CNc1ccn(-c2ccnc3c2cc([C@H](C)N2CCC(c4ccc(C(=O)N5CCC(CN6CCN(Cc7ccc8c(c7)C7(CC7)C(=O)N8C7CCC(=O)NC7=O)C[C@@H]6C)CC5)cc4)CC2)n3C)c(=O)c1` (mixture of isomers) [Example 3u5, 3-(5′-(((S)-3-methyl-4-((1-(4-(1-((S)-1-(1-methyl-4-(4-(methylamino)-2-oxopyridin-1 (2H)-yl)-1H-pyrrolo[2,3-b]pyridin-2-yl)ethyl)piperidin-4-yl)benzoyl)piperidin-4-yl)methyl)piperazin-1-yl)-methyl)-2′-oxospiro[cyclopropane-1,3′-indolin]-1′-yl)piperidine-2,6-dione], the half-maximal degradation concentration (DC50) on STAT6 worked out at 1 nM. For the same molecule, in assay [1], it took 0.8 nM to reach a half-maximal effect (EC50).

In the case of `CNc1cc(=O)n(-c2ccnc3c2cc([C@H](C)N2CC=C(c4c(C)cc(C(=O)N5CCC(CN6CCN(Cc7ccc8c(c7)C(C)(C)C(=O)N8[C@H]7CCC(=O)NC7=O)CC6)CC5)cc4F)CC2)n3C)cc1F` (single isomer, unassigned) [Example 3u88], the DC50 on STAT6 was 3.3 nM. In assay [1], the EC50 came to 12.9 nM.

On to `CNc1cc(=O)n(-c2ccnc3c2cc(CN2CC=C(c4c(F)cc(C(=O)N5CCC(CN6CCN(Cc7ccc8c(c7)C(C)(C)C(=O)N8[C@H]7CCC(=O)NC7=O)C[C@@H]6C)CC5)cc4F)CC2)n3C)cc1F` (single isomer, unassigned) [Example 3u78], for which the DC50 on STAT6 came to 9.8 nM. Besides, it took 45.9 nM to reach a half-maximal effect in assay [1] (EC50).

For the molecule `C[C@H]1CN(Cc2ccc3c(c2)C(C)(C)C(=O)N3C2CCC(=O)NC2=O)CCN1CC1CCN(C(=O)c2ccc(C3CCN([C@@H](C)c4cc5c(-n6ccc7c(c6=O)CCN7)ccnc5n4C)CC3)cc2)CC1` (stereo partly drawn) [Example 3u184, 3-(3,3-dimethyl-5-(((S)-3-methyl-4-((1-(4-(1-((S)-1-(1-methyl-4-(4-oxo-1,2,3,4-tetrahydro-5H-pyrrolo[3,2-c]pyridin-5-yl)-1H-pyrrolo[2,3-b]pyridin-2-yl)ethyl)piperidin-4-yl)benzoyl)-piperidin-4-yl)methyl)piperazin-1-yl)methyl)-2-oxoindolin-1-yl)piperidine-2,6-dione], the 50% degradation concentration (DC50) at STAT6 came to 2.4 nM. In addition, the EC50 in assay [1] amounted to 7 nM.

For `CNc1cc(=O)n(-c2ccnc3c2cc([C@H](C)N2CC=C(c4c(C)cc(C(=O)N5CCC(CN6CCN(c7ccc8c(c7)C(C)(C)C(=O)N8[C@H]7CCC(=O)NC7=O)CC6)CC5)cc4F)CC2)n3C)cc1F` (single isomer, unassigned) [Example 3u285], the DC50 at STAT6 was determined as 7.8 nM. The same molecule had an EC50 in assay [1] of 101 nM.

Consider `CNc1ccn(-c2ccnc3c2cc(CN2CC=C(c4c(C)cc(C(=O)N5CCC(CN6CCN(Cc7ccc8c(c7)n(C)c(=O)n8[C@H]7CCC(=O)NC7=O)CC6)CC5)cc4F)CC2)n3C)c(=O)c1` (single isomer, unassigned) [Example 3u161], for which the DC50 on STAT6 was determined as 3.1 nM. The EC50 in assay [1] was 1.7 nM.

With `Cc1cc(C(=O)N2CCC(CN3CCN(Cc4ccc5c(c4)n(C)c(=O)n5C4CCC(=O)NC4=O)CC3)CC2)cc(F)c1C1=CCN([C@@H](C)c2cc3c(-n4ccc5c(c4=O)CCN5)ccnc3n2C)CC1` (stereo partly drawn) [Example 3u22, 3-(5-((4-((1-(3-fluoro-5-methyl-4-(1-((S)-1-(1-methyl-4-(4-oxo-1,2,3,4-tetrahydro-5H-pyrrolo[3,2-c]pyridin-5-yl)-1H-pyrrolo[2,3-b]pyridin-2-yl)ethyl)-1,2,3,6-tetrahydropyridin-4-yl)-benzoyl)piperidin-4-yl)methyl)piperazin-1-yl)methyl)-3-methyl-2-oxo-2,3-dihydro-1H-benzo[d]-imidazol-1-yl)piperidine-2,6-dione], the DC50 on STAT6 is 0.7 nM. For the same molecule, the EC50 in assay [1] came out at 0.8 nM.

In the case of `CNc1ccn(-c2ccnc3c2cc([C@H](C)N2CC=C(c4c(C)cc(C(=O)N(C)c5ccc(C6CCN(Cc7ccc8c(c7)n(C)c(=O)n8C7CCC(=O)NC7=O)CC6)nc5)cc4F)CC2)n3C)c(=O)c1` (stereo partly drawn) [Example 3u231, N-(6-(1-((1-(2,6-dioxopiperidin-3-yl)-3-methyl-2-oxo-2,3-dihydro-1H-benzo[d]-imidazol-5-yl)methyl)piperidin-4-yl)pyridin-3-yl)-3-fluoro-N,5-dimethyl-4-(1-((S)-1-(1-methyl-4-(4-(methylamino)-2-oxopyridin-1 (2H)-yl)-1H-pyrrolo[2,3-b]pyridin-2-yl)ethyl)-1,2,3,6-tetrahydropyridin-4-yl)benzamide], the DC50 at STAT6 is 0.1 nM. In addition, the midpoint of the response in assay [1], the EC50, lay at 0.8 nM.

Regarding `CNc1cc(=O)n(-c2ccnc3c2cc([C@H](C)N2CC=C(c4c(C)cc(C(=O)N5CCC(CN6CCN(c7ccc8c(c7)C7(CC7)C(=O)N8[C@@H]7CCC(=O)NC7=O)C[C@@H]6C)CC5)cc4F)CC2)n3C)cc1F` (single isomer, unassigned) [Example 3u64], at STAT6, the DC50 worked out at 7.3 nM. Also, in assay [1], the concentration giving a half-maximal response (EC50) was 50.3 nM.

As for `C[C@H]1CN(Cc2ccc3c(c2)C2(CCC2)C(=O)N3C2CCC(=O)NC2=O)CCN1CC1CCN(C(=O)c2cc(F)c(C3CCN(Cc4cc5c(-n6ccc7c(c6=O)CCN7)ccnc5n4C)CC3)c(F)c2)CC1` (stereo partly drawn) [Example 3u101, 3-(5′-(((S)-4-((1-(3,5-difluoro-4-(1-((1-methyl-4-(4-oxo-1,2,3,4-tetrahydro-5H-pyrrolo[3,2-c]pyridin-5-yl)-1H-pyrrolo[2,3-b]pyridin-2-yl)methyl)piperidin-4-yl)benzoyl)piperidin-4-yl)methyl)-3-methylpiperazin-1-yl)methyl)-2′-oxospiro[cyclobutane-1,3′-indolin]-1′-yl)piperidine-2,6-dione], the DC50 on STAT6 was 2.3 nM. This molecule registered an EC50 in assay [1] of 2.4 nM.

Regarding `CNc1ccn(-c2ccnc3c2cc([C@H](C)N2CC=C(c4c(C)cc(C(=O)N5CCC(CN6CCN(Cc7ccc8c(c7)n(C7CC7)c(=O)n8C7CCC(=O)NC7=O)CC6)CC5)cc4F)CC2)n3C)c(=O)c1` (stereo partly drawn) [Example 3u122, 3-(3-cyclopropyl-5-((4-((1-(3-fluoro-5-methyl-4-(1-((S)-1-(1-methyl-4-(4-(methylamino)-2-oxopyridin-1 (2H)-yl)-1H-pyrrolo[2,3-b]pyridin-2-yl)ethyl)-1,2,3,6-tetrahydropyridin-4-yl)benzoyl)piperidin-4-yl)methyl)piperazin-1-yl)methyl)-2-oxo-2,3-dihydro-1H-benzo[d]imidazol-1-yl)piperidine-2,6-dione], at STAT6, the DC50 was 1.2 nM. The molecule further gave an EC50 in assay [1] of 0.6 nM.

In the case of `CNc1cc(=O)n(-c2ccnc3c2cc(CN2CCC(c4c(F)cc(C(=O)N5CCC(CN6CCN(Cc7ccc8c(c7)n(C)c(=O)n8[C@@H]7CCC(=O)NC7=O)CC6)CC5)cc4F)CC2)n3C)cc1F` (single isomer, unassigned) [Example 3u28], the half-maximal degradation concentration (DC50) at STAT6 was determined as 2.9 nM. The molecule further came in with a 50% effective concentration (EC50) in assay [1] of 24.3 nM.

For the molecule `CNc1ccn(-c2ccnc3c2cc([C@H](C)N2CC=C(c4c(C)cc(C(=O)N5CCC(CN6CCN(c7ccc8c(c7)C(C)(C)C(=O)N8[C@@H]7CCC(=O)NC7=O)CC6)CC5)cc4F)CC2)n3C)c(=O)c1` (single isomer, unassigned) [Example 3u281], at STAT6, the half-maximal degradation concentration (DC50) was 4 nM. In assay [1], the EC50 is 4.2 nM.
